Results published in paper PMC6261607, “Novel high–throughput myofibroblast assays identify agonists with therapeutic potential in pulmonary fibrosis that act via EP2 and EP4 receptors” (PLoS ONE, 2018).
Like-named read-outs stand apart in the source and are kept apart here.

What was measured:
[1] = tested on: α–SMA protein in TGF–β1–induced NHLF myofibroblasts; experiment: MS/MS α–SMA, NHLF myofibroblast reversal assay; assay type: cell-based, human; conditions: Homo sapiens
Procedure: (§1) Cell culture medium was removed and cells were lysed on ice by adding 5 μl / well of pre–cooled protein extraction buffer containing 10 mM Tris–HCl (pH 8.0), 6 M urea and 2 M thiourea and shaking on ice on a plate shaker at 600 rpm for 30 min.
(§2) Cell lysate was transferred to a 96–well polypropylene–PCR–plate. 15 μl / well denaturation buffer (6 M urea, 50 mM ammonium bicarbonate) and 2 μl / well of 50 mM TCEP were added and samples were denatured for 1 h at 60°C using the Veriti 96–well Fast Thermal Cycler System (Applied Biosystem) with a heated lid. Plates were allowed to cool to RT. Subsequently, 2 μl of 100 mM iodoacetamide were added per well to derivatize cysteine residues. Plates were then sealed and vortexed for 2 min in the dark and incubated for 30 min at 37°C in a thermal cycler with a heated lid. 90 μl of 50 mM ammonium bicarbonate pH 7.8 were added, followed by the addition of 10 μl of trypsin at 0.02 μg / ml. Samples were trypsin–digested overnight at 37°C in a thermal cycler with heated lid. […] Samples were desalted under vacuum using an Oasis HLB 96–well (30 μm particle size, 5 mg sorbent / well) reverse phase cartridge according to the manufacturer’s instructions and eluted with 170 μl of 90% acetonitrile, 0.1% formic acid. Samples were dried down with a flow of nitrogen at 40°C, left to cool to RT and re–suspended in 40 μl 5% acetonitrile, 0.1% formic acid on a plate shaker set to 1400 rpm for 5 min. Plates were centrifuged at 4,000 rpm for 10 min and 2 times 12 μl / well of supernatant were transferred into separate 96–well plates (Greiner Bio–One), sealed and stored at 4°C until analyzed by MS / MS.
(§3) Surrogate tryptic peptides were chosen for detection of COL1 (COL1A1), α–SMA (ACTA) and tubulin (TBA1A1) and crude synthetic peptides were purchased from Thermo Fischer. After several rounds of optimization following standard workflows, […] (COL1 / COL1A1), […] (α–SMA / ACTA) and […] LC–MS / MS analysis was performed on a RapidFire™ RF360 system (Agilent Technologies) coupled to an API 5500 (ABSciex) with positive ion electrospray ionization. […] Detection was performed using multiple reaction monitoring (MRM) mode to monitor parent⟶product ion transitions (m / z). […] The source parameters were curtain gas (CUR) nitrogen: 20 psig; collision gas (CAD): 7 psig; ion source gas 1: 50.0 psig; ion source gas 2: 50.0 psig; ion spray voltage (IS): 5500 V; turbo heater temperature (TEM): 600°C; entrance potential (EP): 10V. Peak areas for COL1A1 and ACTA were normalized by dividing by TBA1A peak area.
(§4) To identify compounds with potential to revert differentiated myofibroblasts to fibroblasts the assay procedures were modified. After 24 h starvation, NHLF cells were stimulated with 5 ng / ml TGF–β1 for 24 h. At t = 24 h TGF–β1 was removed and either vehicle (DMSO) or compounds were added and incubated with the cells for a further 72 h.

[2] = tested on: normal human lung fibroblasts (NHLF); experiment: Impedance measurement of TGF–β1–induced myofibroblast transition (IPQA), standard assay; assay type: cell-based
Procedure: (§5) To measure dynamic cell shape and adhesion changes during fibrotic transdifferentiation, NHLF were seeded at a density of 20,000 cells per well in FGM–2 growth medium (Lonza) containing 100 units / ml of penicillin and 100 μg / ml of streptomycin into E–plates with continued impedance signal measurement (xCELLigence system, Roche Applied Science). After overnight growth, the medium was exchanged for FBM (Lonza) supplemented with 100 units / ml of penicillin and 100 μg / ml of streptomycin and 0.1% faf BSA and cells were starved for 32 h. Compound dilution series were added and myofibroblast transition was induced by adding TGF–β1 at a concentration of 5 ng / ml, followed by continued impedance sampling for up to 48 h. For data analysis, impedance raw traces were normalized to the time point of compound addition and the baseline response (DMSO, non–TGF–β1 treated cells) was subtracted. In some cases, impedance values at defined time points were used to generate concentration–response curves to determine compound potency and efficacy using GraphPad Prism software version 7 (GraphPad Software Inc).

[3] = tested on: TGF–β1–induced NHLF myofibroblasts; experiment: cells; assay type: cell-based
Procedure: as §5, §4

[4] = tested on: COL1 protein in TGF–β1–induced NHLF myofibroblasts; experiment: MS/MS COL1, NHLF myofibroblast reversal assay; assay type: cell-based, human; conditions: Homo sapiens, Col1
Procedure: as §1, §2, §3, §4

[5] = reversal assay: 24 h 5 ng/ml TGF–β1, washed, 72 h compound, normalized to tubulin, read-out: MS / MS α–SMA IC50
[6] = Fibroblast, 5 ng/ml TGF–β1, compound added with TGF–β1, impedance at t = 20 h post TGF–β1, mean ± SD, read-out: Impedance IC50
[7] = Homo sapiens, Fibroblast, 5 ng/ml TGF–β1, t = 20 h, representative experiment of supplementary figure, read-out: IC50 on impedance (curve of a single experiment)
[8] = reversal assay: 24 h 5 ng/ml TGF–β1, washed, then compound, impedance data at t = 20 h
[9] = reversal assay: 24 h 5 ng/ml TGF–β1, washed, 72 h compound, normalized to tubulin, read-out: MS / MS COL1 IC50
[10] = NHLF pre–stimulated 24 h with 5 ng/ml TGF–β1, representative experiment, S7 Fig E, read-out: IC50, reversal of COL1 (curve of a single experiment)
[11] = NHLF pre–stimulated 24 h with 5 ng/ml TGF–β1, representative experiment, S7 Fig D, read-out: IC50, reversal of α–SMA (curve of a single experiment)

With `C[C@]12CC[C@H](O)C[C@H]1CC[C@@H]1[C@@H]2C[C@@H](O)[C@]2(C)[C@@H](C3=CC(=O)OC3)CC[C@]12O` [Digoxigenin] the IC50 [1, 5] was 48 nM, the IC50 [2, 6] was 250 ± 140 nM and the IC50 [2, 7] was 154 nM. For the same compound, the IC50 [3, 8] was 140 nM and the IC50 [4, 9] was 54 nM.
`CCCCC[C@H](O)/C=C/[C@H]1[C@H](O)CC(=O)[C@@H]1CCCCCCC(=O)O` [Alprostadil] gave an IC50 [1, 5] of 1 nM, an IC50 [2, 6] of 0.6 ± 0.1 nM and an IC50 [3, 8] of 0.9 ± 0.2 nM. It also gave an IC50 [4, 10] of 2 nM and an IC50 [4, 9] of 1.5 ± 0.7 nM.
Compound `CCCCC[C@H](O)/C=C/[C@H]1[C@H](O)CC(=O)[C@@H]1C/C=C\CCCC(=O)O` [PGE2, prostaglandin E2] has an IC50 [1, 11] of 0.82 nM, an IC50 [1, 5] of 0.8 nM and an IC50 [2, 6] of 0.5 ± 0.1 nM. It also gave an IC50 [2, 7] of 0.4 nM, an IC50 [3, 8] of 0.7 nM and an IC50 [4, 9] of 0.4 nM.
With `O=C1CC[C@H](/C=C/[C@@H](O)Cc2ccccc2)N1CCCCCCc1nn[nH]n1` [Merck–19a] the IC50 ([2]; 5 ng/ml TGF–β1, compound added with TGF–β1, impedance at t = 20 h post TGF–β1, mean ± SD, read-out: Impedance IC50) was 10.4 ± 1.1 nM.
Work on `CC(C)(C)c1ccc(CN(Cc2cccc(OCC(=O)O)c2)S(=O)(=O)c2cccnc2)cc1` [Evatanepag] yielded an IC50 [1, 5] of 16 nM, an IC50 [2, 6] of 6.7 ± 3 nM and an IC50 [2, 7] of 5 nM. For the same compound, the IC50 [3, 8] was 14 nM and the IC50 [4, 9] was 24 nM.
`O=C(CC1NCCCC1O)Cn1cnc2cc(Br)c(Cl)cc2c1=O` (stereo not drawn) [Halofuginone] gave an IC50 [1, 11] of 40 nM, an IC50 [1, 5] of 102 ± 87 nM and an IC50 [2, 6] of 96 ± 10 nM. For the same compound, the IC50 [2, 7] was 26 nM, the cytotoxic concentration ([3]; human, 72 h) was ≥ 10’000 nM and the IC50 [3, 8] was > 1000 nM. The IC50 [4, 10] was 59 nM and the IC50 [4, 9] was 116 ± 81 nM.
`COC(=O)c1ccc2c(c1)NC(=O)/C2=C(\Nc1ccc(N(C)C(=O)CN2CCN(C)CC2)cc1)c1ccccc1` [Nintedanib] was tested, and the IC50 [1, 5] was > 10000 nM, the IC50 [2, 6] was 300 ± 110 nM and the IC50 [3, 8] was > 10000 nM. It also gave an IC50 [4, 9] of 626 nM.
For “TGF–β1: transforming growth factor–β1, stimulus of myofibroblast differentiation”, the “EC50 of impedance change” value ([2]; impedance at t = 20 h, mean ± SD, n = 8) was 0.03 ± 0.01 ng/mL.
For `Cc1cccc(-c2[nH]c(CNc3ccccc3F)nc2-c2ccc3ncnn3c2)n1` [EW–7197], the IC50 [1, 11] was 51 nM, the IC50 [1, 5] was 73 ± 31 nM and the IC50 [2, 6] was 47 ± 25 nM. For the same compound, the IC50 ([3]; Homo sapiens, reversal assay, impedance at t = 72 h post TGF–β1, n = 2) was 47 ± 1 nM, the IC50 [3, 8] was > 10000 nM and the IC50 [4, 10] was 103 nM. The IC50 [4, 9] was 82 ± 30 nM.
